Source: patent publication US20070203104A1, “Pharmaceutical Formulations” (priority 2006, published 2007)

Experiments:
[1] = symptoms associated with chronic nasal congestion, cited from earlier work
[2] = cited from earlier work
[3] = cited from earlier work; remark: listed apart in the source
Solubility = type: physicochemical
rhinoviruses = conditions: cited from earlier work
[4] = system: secretions of natural tear components; conditions: preclinical testing; cited from earlier work

SMILES: Oc1cccc(Nc2ncc(F)c(Nc3cccc(O)c3)n2)c1 [Example R112]
- improvement from baseline measurements ([1]; baseline prior to drug initiation): up to 38%
- absolute difference over placebo [1]: 9%
- relative improvement over placebo [1]: greater than 20%

SMILES: C[C@@H]1C[C@H]2[C@@H]3CCC4=CC(=O)C=C[C@]4(C)[C@@]3(Cl)[C@@H](O)C[C@]2(C)[C@@]1(OC(=O)c1ccco1)C(=O)CCl [Mometasone Furoate]
- bioavailability [2]: not readily bioavailable

SMILES: Cc1cc(CCCOc2c(C)cc(-c3noc(C(F)(F)F)n3)cc2C)on1 [Pleconaril, 1,2,4-oxadiazole3-[3,5-Dimethyl-4-[3-(3-methyl-5-isoxazolyl)propoxy]phenyl]-5-(trifluoremethyl)]
- solubility in aqueous solvents [3]: insoluble
- solubility in condensed phases of hydrofluorocarbons (Solubility; certain condensed phases of hydrofluorocarbons, e.g. HFA 227): can be dissolved
- solubility in certain glyceride oils (Solubility; certain glyceride oils, e.g. Miglyol 812): can be dissolved
- activity against rhinoviruses (rhinoviruses): active

SMILES: O=c1ccn([C@@H]2O[C@H](COP(=O)(O)OP(=O)(O)OP(=O)(O)OP(=O)(O)OC[C@H]3O[C@@H](n4ccc(=O)[nH]c4=O)[C@H](O)[C@@H]3O)[C@@H](O)[C@H]2O)c(=O)[nH]1 [diquafosol]
- secretions of natural tear components [4]: increased
